Assay results published in US8629143B2, “Potassium channel modulators” (AbbVie Inc., priority 2009, dated 2014).

Tests used:
[1] = biological target: T1, KCNQ 2/3 channels (HEK293 cells stably expressing human KCNQ2 and KCNQ3 subunits) (Homo sapiens, UniProt O43525+O43526); test: KCNQ2/3 channel activation, thallium flux FLIPR assay with BTC-AM dye; assay type: cell-based; conditions: for Emax: HEK293, maximum response relative to the response produced by 10 μM retigabine (set at 100%), read-out: Max. %; for EC50: HEK293 cells expressing human KCNQ2 and KCNQ3, thallium flux, FLIPR
T1 construct: expressed in transfected cells; host or cells: HEK293
In short: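 HEK293 cells stably expressing human KCNQ2/KCNQ3 were loaded with BTC-AM (3 μg/mL, 2 h, RT) and preincubated with compound for 4 min in pH 7.3 gluconate buffer containing 0.1 mM ouabain. Flux was triggered by 6 mM TlNO3/10 mM K2SO4 and read for 3 min; EC50 came from summed responses over basal, with maximum relative to 10 μM retigabine (100%).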

[2] = system: Adult male Sprague-Dawley rats; test: Spinal nerve ligation (SNL) model of neuropathic pain; assay type: in vivo; conditions: rat SNL model (L5/L6 ligation), about 30 mg/kg, tactile allodynia
Excerpt: (§1) Adult male Sprague-Dawley rats (250-300 g body weight, Charles River Laboratories, Portage, Mich.) were used. Animal handling and experimental protocols were approved by the Institutional Animal Care and Use Committee (IACUC) at Abbott Laboratories. For all surgical procedures, animals were maintained under isoflurane anesthesia (4-5% to induce, 1-3% to maintain), and the incision sites were sterilized using a 10% povidone-iodine solution prior to and after surgeries.
Tactile (mechanical) allodynia was measured using calibrated von Frey filaments (Stoelting, Wood Dale, Ill.) as described in Chaplan, S. R., F. W. Bach, J. M. Pogrel, J. M. Chung and T. L. Yaksh, 1994, Quantitative assessment of tactile allodynia in the rat paw, J. Neurosci. Methods, 53, 55. Rats were placed into inverted individual plastic containers (20×12.5×20 cm) on top of a suspended wire mesh grid, and acclimated to the test chambers for 20 minutes. The von Frey filaments were presented perpendicularly to the plantar surface of the selected hind paw, and then held in this position for approximately 8 sec with enough force to cause a slight bend in the filament. Positive responses included an abrupt withdrawal of the hind paw from the stimulus, or flinching behavior immediately following removal of the stimulus. A 50% withdrawal threshold was determined using an up-down procedure (Dixon, W. J., 1980, Efficient analysis of experimental observations, Ann. Rev. Pharmacol. Toxicol., 20, 441). […] Tactile allodynia thresholds were also assessed in several control groups, including naive, sham-operated, and saline infused animals as well as in the contralateral paws of nerve-injured rats. To evaluate the anti-nociceptive effects, animals were administered vehicle or test compound and tactile allodynia was assessed 30 minutes after i.p. administration.
A model of spinal nerve ligation-induced (SNL model) neuropathic pain as originally described by Kim and Chung (Kim, S. H. and J. M. Chung, 1992, Pain 50, 355) was used to test a compound of the present application The left L5 and L6 spinal nerves of the rat were isolated adjacent to the vertebral column and tightly ligated with a 5-0 silk suture distal to the DRG, and care taken to avoid injury of the L4 spinal nerve. The same procedure was performed on Sham rats, but without nerve ligation. All animals were allowed to recover for at least one week and not more than three weeks prior to assessment of tactile allodynia.

[3] = system: Adult male Sprague-Dawley rats; test: Capsaicin-induced secondary mechanical hypersensitivity; assay type: in vivo; conditions: rat, about 30 mg/kg i.p., tactile allodynia 30 minutes after dosing, 180 minutes post-capsaicin
Excerpt: as §1
Rats were allowed to acclimate to the study room for 1 h. […] Secondary mechanical hyperalgesia was measured at the heel away from the site of injection at 180 minutes following capsaicin (Joshi et al 2006, Neuroscience 143, 587-596). […]
Tactile (mechanical) allodynia was measured using calibrated von Frey filaments (Stoelting, Wood Dale, Ill.) as described in Chaplan, S. R., F. W. Bach, J. M. Pogrel, J. M. Chung and T. L. Yaksh, 1994, Quantitative assessment of tactile allodynia in the rat paw, J. Neurosci. […] A 50% withdrawal threshold was determined using an up-down procedure (Dixon, W. J., 1980, Efficient analysis of experimental observations, Ann. Rev. Pharmacol. Toxicol., 20, 441). […] Tactile allodynia thresholds were also assessed in several control groups, including naive, sham-operated, and saline infused animals as well as in the contralateral paws of nerve-injured rats. […]
Tactile allodynia was measured as described above.

Row | SMILES | Emax [1] | EC50 [1] | change in paw withdrawal latency versus vehicle [2] | change in paw withdrawal latency versus vehicle [3]
1 | O=C(Cc1ccc(Cl)cc1)Nn1nc(-c2ccc(Cl)cc2)c2ccccc2c1=O [Example 117, 2-(4-chlorophenyl)-N-[4-(4-chlorophenyl)-1-oxophthalazin-2(1H)-yl]acetamide] | 120% | 100 to 500 nM | statistically significant change | –
2 | CC1(C)[C@@H]2C[C@H]1[C@H](CC(=O)Nn1nc(-c3ccc(Cl)cc3)c3ccccc3c1=O)C(F)(F)C2 [Example 88, N-[4-(4-chlorophenyl)-1-oxophthalazin-2(1H)-yl]-2-[(1S,2S,5R)-3,3-difluoro-6,6-dimethylbicyclo[3.1.1]hept-2-yl]acetamide] | 60% | 500 to 1000 nM | statistically significant change | –
3 | O=C(Cc1ccc(Cl)cc1)Nn1nc(-c2ccc(Br)cc2)c2ccccc2c1=O [Example 3, N-[4-(4-bromophenyl)-1-oxophthalazin-2(1H)-yl]-2-(4-chlorophenyl)acetamide] | 100% | 100 to 500 nM | – | statistically significant change
4 | O=C(C[C@H]1C[C@@H]2CC[C@H]1C2)Nn1nc(-c2ccc(C(F)(F)F)cc2)c2ccccc2c1=O (racemic) [Example 150, (±)-2-(exo-bicyclo[2.2.1]hept-2-yl)-N-{1-oxo-4-[4-(trifluoromethyl)phenyl]phthalazin-2(1H)-yl}acetamide] | 138% | < 100 nM | statistically significant change | –
5 | O=C(CC12CC3CC(CC(C3)C1)C2)Nn1nc(-c2ccccc2)c2ccccc2c1=O [Example 17, 2-(1-adamantyl)-N-(1-oxo-4-phenylphthalazin-2(1H)-yl)acetamide] | 205% | < 100 nM | – | statistically significant change
6 | O=C(Cc1ccccc1)Nn1nc(-c2ccc(Cl)cc2)c2ccccc2c1=O [Example 91, N-[4-(4-chlorophenyl)-1-oxophthalazin-2(1H)-yl]-2-phenylacetamide] | 101% | 100 to 500 nM | statistically significant change | –
7 | O=C(Cc1cc(F)cc(F)c1)Nn1nc(Cl)c2ccccc2c1=O [Example 19, N-(4-chloro-1-oxophthalazin-2(1H)-yl)-2-(3,5-difluorophenyl)acetamide] | 45% | 1000 to 10000 nM | – | –
8 | COc1ccc(-c2nn(NC(=O)Cc3cc(F)cc(F)c3)c(=O)c3ccc(Br)cc23)cc1 [Example 176, N-[6-bromo-4-(4-methoxyphenyl)-1-oxophthalazin-2(1H)-yl]-2-(3,5-difluorophenyl)acetamide] | 33% | 100 to 500 nM | – | –
9 | O=C(Cc1cc(F)cc(F)c1)Nn1nc(-c2ccccc2)c2c(c1=O)CCC2 [Example 188, 2-(3,5-difluorophenyl)-N-(1-oxo-4-phenyl-1,5,6,7-tetrahydro-2H-cyclopenta[d]pyridazin-2-yl)acetamide] | 131% | 1000 to 10000 nM | – | –
